# Measured values published in US20250143299A1, “METHODS AND COMPOSITIONS FOR CONTROLLING PESTS IN VEGETABLES” (Globachem NV, priority 2022, published 2025).
# Columns and labels:
# Type in all cases: in vivo
# Conditions in all cases: appl. AB
# [1] = test system: Pea; assay: Example 6 phytotoxicity, necrosis/burn (PHYNEC) on pea; set-up: scale not given here
# Description: Trial conducted on peas, variety Navarro, 4 replicates per plot. Each plot was at least 12 m^2, a water volume of 200 L water per ha was used for the application.
# Insects present at the time of application A: 106 aphids per 20 shoots. The stage of the crop at application A was BBCH 75-77, and at application B, (14 DAA) BBCH 79-81.
# [2] = test system: Pea; assay: Example 5 phytotoxicity, chlorosis (PHYCHL) on pea; set-up: scale not given here
# Procedure: The trial was conducted on peas, variety Batuta, 4 replicates per plot. A water volume of 200 L water/ha was used for each application. Two applications were made, Application A was made at first infestation and Application B was made 14d later. Each plot at least 12 m^2.
# [3] = test system: Leptinotarsa decemlineata; assay: Example 8 Trial 2 potato, Leptinotarsa decemlineata (LEPTNDE) control
# Description: Trial 2: Potatoes, 4 replicates per plot, each plot at least 25 m^2. A water volume of 200 L water/ha was used for each application. Two applications were made at a 14d interval.
# Application made at the occurrence of the insects. Application A was made at Stage BBCH 39-41, application B was made 14 days later at Stage BBCH 41-44.
# Insects present at the time of application: at App A: 9/10 plants at App B in untreated: 44/10 plants
smiles,measurement,setting,value
"CCCCCCCCC(=O)O [PA, pelargonic acid]",Phytotoxicity - Necrosis/burn (PHYNEC),"[1]; 975 g/ha (1.5 L/ha), 7 DAA",0
same,Phytotoxicity - Necrosis/burn (PHYNEC),"[1]; 975 g/ha (1.5 L/ha), 14 DAA",0
same,Phytotoxicity - Necrosis/burn (PHYNEC),"[1]; 1300 g/ha (2.0 L/ha), 7 DAA",3
same,Phytotoxicity - Necrosis/burn (PHYNEC),"[1]; 1300 g/ha (2.0 L/ha), 14 DAA",3
same,Phytotoxicity - Necrosis/burn (PHYNEC),"[1]; 2600 g/ha (4.0 L/ha), 7 DAA",37.5
same,Phytotoxicity - Necrosis/burn (PHYNEC),"[1]; 2600 g/ha (4.0 L/ha), 14 DAA",37.5
same,Phytotoxicity - Chlorosis (PHYCHL),"[2]; 585 g/ha (0.9 L/ha), 3 DAA",0
same,Phytotoxicity - Chlorosis (PHYCHL),"[2]; 585 g/ha (0.9 L/ha), 3 DAB",0
same,Phytotoxicity - Chlorosis (PHYCHL),"[2]; 585 g/ha (0.9 L/ha), 7 DAA",0
same,Phytotoxicity - Chlorosis (PHYCHL),"[2]; 585 g/ha (0.9 L/ha), 7 DAB",0
same,Phytotoxicity - Chlorosis (PHYCHL),"[2]; 585 g/ha (0.9 L/ha), 14 DAA",0
same,Phytotoxicity - Chlorosis (PHYCHL),"[2]; 585 g/ha (0.9 L/ha), 14 DAB",0
same,Phytotoxicity - Chlorosis (PHYCHL),"[2]; 585 g/ha (0.9 L/ha), Same day A",0
same,Phytotoxicity - Chlorosis (PHYCHL),"[2]; 585 g/ha (0.9 L/ha), Same day B",0
same,Phytotoxicity - Chlorosis (PHYCHL),"[2]; 975 g/ha (1.5 L/ha), 3 DAA",2
same,Phytotoxicity - Chlorosis (PHYCHL),"[2]; 975 g/ha (1.5 L/ha), 3 DAB",2
same,Phytotoxicity - Chlorosis (PHYCHL),"[2]; 975 g/ha (1.5 L/ha), 7 DAA",2
same,Phytotoxicity - Chlorosis (PHYCHL),"[2]; 975 g/ha (1.5 L/ha), 7 DAB",2
same,Phytotoxicity - Chlorosis (PHYCHL),"[2]; 975 g/ha (1.5 L/ha), 14 DAA",2
same,Phytotoxicity - Chlorosis (PHYCHL),"[2]; 975 g/ha (1.5 L/ha), 14 DAB",0
same,Phytotoxicity - Chlorosis (PHYCHL),"[2]; 975 g/ha (1.5 L/ha), Same day A",0
same,Phytotoxicity - Chlorosis (PHYCHL),"[2]; 975 g/ha (1.5 L/ha), Same day B",3
same,Phytotoxicity - Chlorosis (PHYCHL),"[2]; 1300 g/ha (2.0 L/ha), 3 DAA",5
same,Phytotoxicity - Chlorosis (PHYCHL),"[2]; 1300 g/ha (2.0 L/ha), 3 DAB",6
same,Phytotoxicity - Chlorosis (PHYCHL),"[2]; 1300 g/ha (2.0 L/ha), 7 DAA",6
same,Phytotoxicity - Chlorosis (PHYCHL),"[2]; 1300 g/ha (2.0 L/ha), 7 DAB",6
same,Phytotoxicity - Chlorosis (PHYCHL),"[2]; 1300 g/ha (2.0 L/ha), 14 DAA",4
same,Phytotoxicity - Chlorosis (PHYCHL),"[2]; 1300 g/ha (2.0 L/ha), 14 DAB",0
same,Phytotoxicity - Chlorosis (PHYCHL),"[2]; 1300 g/ha (2.0 L/ha), Same day A",5
same,Phytotoxicity - Chlorosis (PHYCHL),"[2]; 1300 g/ha (2.0 L/ha), Same day B",4
same,Phytotoxicity - Chlorosis (PHYCHL),"[2]; 2600 g/ha (4.0 L/ha), 3 DAA",15
same,Phytotoxicity - Chlorosis (PHYCHL),"[2]; 2600 g/ha (4.0 L/ha), 3 DAB",23
same,Phytotoxicity - Chlorosis (PHYCHL),"[2]; 2600 g/ha (4.0 L/ha), 7 DAA",20
same,Phytotoxicity - Chlorosis (PHYCHL),"[2]; 2600 g/ha (4.0 L/ha), 7 DAB",13
same,Phytotoxicity - Chlorosis (PHYCHL),"[2]; 2600 g/ha (4.0 L/ha), 14 DAA",20
same,Phytotoxicity - Chlorosis (PHYCHL),"[2]; 2600 g/ha (4.0 L/ha), 14 DAB",2
same,Phytotoxicity - Chlorosis (PHYCHL),"[2]; 2600 g/ha (4.0 L/ha), Same day A",15
same,Phytotoxicity - Chlorosis (PHYCHL),"[2]; 2600 g/ha (4.0 L/ha), Same day B",20
same,COUINS # L1-L3/10 plants,"[3]; 585 g/ha (0.9 L/ha), 7 DAA",51.7 % UNCK
same,COUINS # L4/10 plants,"[3]; 585 g/ha (0.9 L/ha), 7 DAA",45 % UNCK
same,COUINS # L1-L3/10 plants,"[3]; 585 g/ha (0.9 L/ha), 10 DAB",68.6 % UNCK
same,COUINS # L4/10 plants,"[3]; 585 g/ha (0.9 L/ha), 10 DAB",64.2 % UNCK
same,COUINS Adults/10 plants,"[3]; 585 g/ha (0.9 L/ha), 10 DAB",48 % UNCK
same,COUINS # L1-L3/10 plants,"[3]; 975 g/ha (1.5 L/ha), 7 DAA",48.5 % UNCK
same,COUINS # L4/10 plants,"[3]; 975 g/ha (1.5 L/ha), 7 DAA",35 % UNCK
same,COUINS # L1-L3/10 plants,"[3]; 975 g/ha (1.5 L/ha), 10 DAB",76 % UNCK
same,COUINS # L4/10 plants,"[3]; 975 g/ha (1.5 L/ha), 10 DAB",77 % UNCK
same,COUINS Adults/10 plants,"[3]; 975 g/ha (1.5 L/ha), 10 DAB",55 % UNCK
same,COUINS # L1-L3/10 plants,"[3]; 1300 g/ha (2.0 L/ha), 7 DAA",70.9 % UNCK
same,COUINS # L4/10 plants,"[3]; 1300 g/ha (2.0 L/ha), 7 DAA",59.9 % UNCK
same,COUINS # L1-L3/10 plants,"[3]; 1300 g/ha (2.0 L/ha), 10 DAB",89.8 % UNCK
same,COUINS # L4/10 plants,"[3]; 1300 g/ha (2.0 L/ha), 10 DAB",86.2 % UNCK
same,COUINS Adults/10 plants,"[3]; 1300 g/ha (2.0 L/ha), 10 DAB",69 % UNCK
same,COUINS # L1-L3/10 plants,"[3]; 2600 g/ha (4.0 L/ha), 7 DAA",73.4 % UNCK
same,COUINS # L4/10 plants,"[3]; 2600 g/ha (4.0 L/ha), 7 DAA",80.9 % UNCK
same,COUINS # L1-L3/10 plants,"[3]; 2600 g/ha (4.0 L/ha), 10 DAB",93.4 % UNCK
same,COUINS # L4/10 plants,"[3]; 2600 g/ha (4.0 L/ha), 10 DAB",92.8 % UNCK
same,COUINS Adults/10 plants,"[3]; 2600 g/ha (4.0 L/ha), 10 DAB",78.9 % UNCK
